Consider 16 compounds from patent publication US7713994B2 (Wyeth LLC, priority 2005, dated 2010).

For assay [1], the target named is T1, cyclin D1/cdk 4 enzyme (Homo sapiens, UniProt P11802).
T1 construct: made in house; host or cells: Sf9 insect cells, recombinant baculovirus
Nature of the assay: CDK4 ELISA kinase assay (phospho-Rb ser 795 detection). Type of assay: biochemical. To be noted: In Vitro Enzyme Assay, cyclin D1/cdk 4, read-out: CDK4 IC50. Summed up: (§1)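 ELISA format: plate-bound GST-Rb, 200 μM ATP, Sf9 cyclin/CDK enzyme, 1 h at 30° C; then anti-pRb Ser795 primary overnight at 4° C, HRP secondary, TMB. IC50 after no-substrate background subtraction.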

Assay [2] has as its system HCT-116. Nature of the assay: Cytotoxicity assay (SRB), HCT-116. Format: cell-based. To be noted: Homo sapiens, HCT-116, 72 h, HCT116 cells, 3 days, SRB; read-out: In Vitro Cellular Activity IC50 HCT116. The essentials: (§2)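 Seeding: BT474 12000, HCT-116 4000, LoVo 6000, MCF-7 6000 cells/well; overnight attachment, 37 °C, 7% CO2. Drug exposure 3 d (BT474 6 d), RPMI 1640 + 5% FBS. Readout: TCA fix, 0.4% SRB, Tris solubilisation, A540.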

Assay [3] has as its system BT474. Kind of assay: Cytotoxicity assay (SRB), BT474. Conditions: Homo sapiens, BT-474, 144 h, BT474 cells, 6 days, SRB; read-out: In Vitro Cellular Activity IC50 BT474. Type of assay: cell-based. Summed up:
as §2

Assay [4] relates to LoVo. Kind of assay: Cytotoxicity assay (SRB), LoVo. Type of assay: cell-based. To be noted: Homo sapiens, LoVo, 72 h, LoVo cells, 3 days, SRB; read-out: In Vitro Cellular Activity IC50 LOVO. Summed up:
as §2

For assay [5], the target named is T2, cyclin B/CDK1 enzyme (Homo sapiens, UniProt P06493).
T2 construct: purchased New England BioLabs; host or cells: Sf9 insect cells, recombinant baculovirus
Nature of the assay: CDK1 ELISA kinase assay (phospho-Rb ser 795 detection). Format: biochemical. Conditions: In Vitro Enzyme Assay, cyclin B/CDK1, read-out: CDK1 IC50. The essentials: as §1
Background: ELISA stands for enzyme-linked immunosorbent assay.

Assay [6] concerns the target T3, cyclin E/CDK2 enzyme (Homo sapiens, UniProt P24941).
T3 construct: made in house; host or cells: Sf9 insect cells, recombinant baculovirus
Kind of assay: CDK2 ELISA kinase assay (phospho-Rb ser 795 detection). Format: biochemical. Conditions: In Vitro Enzyme Assay, cyclin E/CDK2, read-out: CDK2 IC50. The essentials: as §1

In assay [7] the test system is MCF-7. Nature of the assay: Cytotoxicity assay (SRB), MCF-7. Type of assay: cell-based. To be noted: Homo sapiens, MCF7, 72 h, MCF-7 cells, 3 days, SRB; read-out: In Vitro Cellular Activity IC50 MCF-7. Summed up:
as §2

Some results are limits rather than exact numbers.

T2 sequence (P06493 whole entry): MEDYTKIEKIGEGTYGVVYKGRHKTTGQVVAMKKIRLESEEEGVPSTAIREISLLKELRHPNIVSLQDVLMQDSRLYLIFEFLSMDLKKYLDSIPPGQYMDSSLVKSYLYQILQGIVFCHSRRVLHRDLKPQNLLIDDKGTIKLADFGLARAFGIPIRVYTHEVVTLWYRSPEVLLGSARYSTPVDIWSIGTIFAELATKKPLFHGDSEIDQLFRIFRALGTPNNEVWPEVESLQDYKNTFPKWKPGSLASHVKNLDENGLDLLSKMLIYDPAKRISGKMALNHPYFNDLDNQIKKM
T2 sequence (P14635 whole entry partner): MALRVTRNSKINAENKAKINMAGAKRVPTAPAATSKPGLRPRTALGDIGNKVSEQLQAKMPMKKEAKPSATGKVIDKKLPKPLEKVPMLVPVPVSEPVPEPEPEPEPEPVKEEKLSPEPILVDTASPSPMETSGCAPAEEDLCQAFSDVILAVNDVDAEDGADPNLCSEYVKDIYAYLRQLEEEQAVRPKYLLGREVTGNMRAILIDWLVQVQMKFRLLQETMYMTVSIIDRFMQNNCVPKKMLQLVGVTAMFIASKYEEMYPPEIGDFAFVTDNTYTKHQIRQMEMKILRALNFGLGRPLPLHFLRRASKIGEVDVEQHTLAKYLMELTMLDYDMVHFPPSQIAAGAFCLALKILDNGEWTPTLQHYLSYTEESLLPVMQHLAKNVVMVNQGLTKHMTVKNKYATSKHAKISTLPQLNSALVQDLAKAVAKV
T1 sequence (P11802 whole entry, species assumed): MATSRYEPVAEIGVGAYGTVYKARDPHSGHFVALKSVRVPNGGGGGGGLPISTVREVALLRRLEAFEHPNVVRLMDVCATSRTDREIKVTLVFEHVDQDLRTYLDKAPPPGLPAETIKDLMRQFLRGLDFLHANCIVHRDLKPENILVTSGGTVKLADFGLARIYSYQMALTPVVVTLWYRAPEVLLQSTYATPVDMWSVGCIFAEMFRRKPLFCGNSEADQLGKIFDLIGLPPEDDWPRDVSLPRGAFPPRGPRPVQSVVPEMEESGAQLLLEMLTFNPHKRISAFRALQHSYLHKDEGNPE
T1 sequence (P24385 whole entry partner, species assumed): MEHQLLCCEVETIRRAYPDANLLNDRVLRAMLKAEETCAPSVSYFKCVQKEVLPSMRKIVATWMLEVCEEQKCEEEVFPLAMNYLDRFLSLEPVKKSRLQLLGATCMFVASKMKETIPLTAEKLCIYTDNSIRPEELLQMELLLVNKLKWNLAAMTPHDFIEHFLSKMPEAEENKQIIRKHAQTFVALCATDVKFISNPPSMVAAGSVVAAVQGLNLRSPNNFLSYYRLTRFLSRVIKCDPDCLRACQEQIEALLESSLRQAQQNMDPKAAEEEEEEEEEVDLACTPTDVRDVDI

In the case of `O=C1NC(=O)c2ccc(C=Cc3ccccn3)cc2C1=CNCc1ccc(O)c(O)c1` [Example 662, 4-[(3,4-Dihydroxy-benzylamino)-methylene]-6-(2-pyridin-2-yl-vinyl)-4H-isoquinoline-1,3-dione], the IC50 (in general, the concentration at which inhibition is half-maximal) in assay [1] was 0.17 µM; in assay [2] it was over 50 µM; in assay [3], 35.8 µM; in assay [4] it was over 50 µM; in assay [5] it was over 50 µM; in assay [6], over 50 µM. Also, the IC50 in assay [7] was determined as 30.6 µM.

With `O=C1NC(=O)c2ccc(C=CC3CCCCC3)cc2C1=CNCc1ccc(O)c(O)c1` [Example 664, 6-(2-Cyclohexyl-vinyl)-4-[(3,4-dihydroxy-benzylamino)-methylene]-4H-isoquinoline-1,3-dione], the concentration for half-maximal inhibition (IC50) in assay [1] is 0.22 µM; in assay [2], 6.7 µM; in assay [3], 9.3 µM; in assay [4], 6 µM; in assay [5], over 50 µM; in assay [6] it was 31.7 µM. Further, the IC50 in assay [7] turned out to be 4.8 µM.

In the case of `O=C1NC(=O)c2ccc(C=CCn3ccnc3)cc2C1=CNCc1ccc(O)c(O)c1` [Example 665, 4-[(3,4-Dihydroxy-benzylamino)-methylene]-6-(3-imidazol-1-yl-propenyl)-4H-isoquinoline-1,3-dione], the IC50 in assay [1] was 0.16 µM; in assay [2], 46.8 µM; in assay [3], 28.9 µM; in assay [4], over 50 µM; in assay [5] it was 42.5 µM; in assay [6] it was 8.2 µM. In assay [7], the IC50 is 13 µM.

Regarding `O=C1NC(=O)c2ccc(C=Cn3ccnc3)cc2C1=CNCc1ccc(O)c(O)c1` [Example 667, 4-[(3,4-Dihydroxy-benzylamino)-methylene]-6-(2-imidazol-1-yl-vinyl)-4H-isoquinoline-1,3-dione], the half-inhibitory concentration (IC50) was 0.01 µM in assay [1]; over 50 µM in assay [2]; over 50 µM in assay [3]; 29.4 µM in assay [4]; over 50 µM in assay [5]; 4 µM in assay [6]. The half-maximal inhibitory concentration (IC50) in assay [7] turned out to be 12.4 µM.

`CN1CCN(c2ccc(NC=C3C(=O)NC(=O)c4ccc(-c5ccc6[nH]ccc6c5)cc43)cc2)CC1` [Example 671, 6-(1H-Indol-5-yl)-4-{[4-(4-methyl-piperazin-1-yl)-phenylamino]-methylene}-4H-isoquinoline-1,3-dione]: the 50% inhibitory concentration (IC50) in assay [1] turned out to be 2 µM; in assay [2], 2.3 µM; in assay [3] it was 2.8 µM; in assay [4], 4.1 µM; in assay [5] it was 11.8 µM; in assay [6] it was 38 µM. Also, the IC50 in assay [7] worked out at 4.4 µM.

Turning to `CN1CCN(c2ccc(NC=C3C(=O)NC(=O)c4ccc(-c5ccc[nH]5)cc43)cc2)CC1` [Example 672, 4-{[4-(4-Methyl-piperazin-1-yl)-phenylamino]-methylene}-6-(1H-pyrrol-2-yl)-4H-isoquinoline-1,3-dione], the IC50 was 0.64 µM in assay [1]; 3.4 µM in assay [2]; 7.9 µM in assay [3]; 2.9 µM in assay [4]; over 50 µM in assay [5]; over 50 µM in assay [6]. Besides, the 50% inhibitory concentration (IC50) in assay [7] was found to be 3.2 µM.

As for `CN1CCN(c2ccc(NC=C3C(=O)NC(=O)c4ccc(-c5cc[nH]c5)cc43)cc2)CC1` [Example 673, 4-{[4-(4-Methyl-piperazin-1-yl)-phenylamino]-methylene}-6-(1H-pyrrol-3-yl)-4H-isoquinoline-1,3-dione], the IC50 in assay [1] was 1 µM; in assay [2], 3 µM; in assay [3] it was 8.5 µM; in assay [4], 5 µM; in assay [5] it was over 50 µM; in assay [6], over 50 µM. The IC50 in assay [7] was found to be 5.8 µM.

Regarding `CN1CCN(c2ccc(NC=C3C(=O)NC(=O)c4ccc(C=Cc5ccccn5)cc43)cc2)CC1` [Example 675, 4-{[4-(4-Methyl-piperazin-1-yl)-phenylamino]-methylene}-6-(2-pyridin-2-yl-vinyl)-4H-isoquinoline-1,3-dione], the concentration for half-maximal inhibition (IC50) in assay [1] was 1.77 µM; in assay [2], 2.3 µM; in assay [3], 7.7 µM; in assay [4], 6.8 µM; in assay [5] it was over 50 µM; in assay [6] it was over 50 µM. Further, the IC50 in assay [7] came to 7.2 µM.

As to `CN1CCN(c2ccc(NC=C3C(=O)NC(=O)c4ccc(C=Cc5ccncc5)cc43)cc2)CC1` [Example 676, 4-{[4-(4-Methyl-piperazin-1-yl)-phenylamino]-methylene}-6-(2-pyridin-4-yl-vinyl)-4H-isoquinoline-1,3-dione], the 50% inhibitory concentration (IC50) is 0.92 µM in assay [1]; 2.5 µM in assay [2]; 7.7 µM in assay [3]; 4.6 µM in assay [4]; 15.1 µM in assay [5]; 15.8 µM in assay [6]. For the same compound, the IC50 in assay [7] worked out at 7.3 µM.

Regarding `CN1CCN(c2ccc(NC=C3C(=O)NC(=O)c4ccc(C=Cc5cnccn5)cc43)cc2)CC1` [Example 678, 4-{[4-(4-Methyl-piperazin-1-yl)-phenylamino]-methylene}-6-(2-pyrazin-2-yl-vinyl)-4H-isoquinoline-1,3-dione], the IC50 in assay [1] is 1.16 µM; in assay [2], 3.5 µM; in assay [3], 9.1 µM; in assay [4], 6.1 µM; in assay [5] it was 14.4 µM; in assay [6] it was over 50 µM. Also, in assay [7], the IC50 came to 10.5 µM.

For the compound `CN1CCN(c2ccc(NC=C3C(=O)NC(=O)c4ccc(C=Cn5ccnc5)cc43)cc2)CC1` [Example 680, 6-(2-Imidazol-1-yl-vinyl)-4-{[4-(4-methyl-piperazin-1-yl)-phenylamino]-methylene}-4H-isoquinoline-1,3-dione], the half-maximal inhibitory concentration (IC50) is 0.23 µM in assay [1]; 5.9 µM in assay [2]; 15.2 µM in assay [3]; 4.7 µM in assay [4]; over 50 µM in assay [5]; over 50 µM in assay [6]. Moreover, the half-maximal inhibitory concentration (IC50) in assay [7] worked out at 6.9 µM.

In the case of `CN1CCN(c2ccc(NC=C3C(=O)NC(=O)c4ccc(-c5ccc(C(=O)O)cc5)cc43)cc2)CC1` [Example 685, 4-(4-{[4-(4-Methyl-piperazin-1-yl)-phenylamino]-methylene}-1,3-dioxo-1,2,3,4-tetrahydro-isoquinolin-6-yl)-benzoic acid], the IC50 in assay [1] was 1.51 µM; in assay [2], 18.4 µM; in assay [3] it was 36.9 µM; in assay [4] it was 25 µM; in assay [5], over 50 µM; in assay [6], over 50 µM. For the same compound, the IC50 in assay [7] was found to be 22.1 µM.

On to `CC(=O)c1ccc(-c2ccc3c(c2)C(=CNc2ccc(N4CCN(C)CC4)cc2)C(=O)NC3=O)cc1` [Example 688, 6-(4-Acetyl-phenyl)-4-{[4-(4-methyl-piperazin-1-yl)-phenylamino]-methylene}-4H-isoquinoline-1,3-dione], for which the half-maximal inhibitory concentration (IC50) was 0.26 µM in assay [1]; 2 µM in assay [2]; 3.3 µM in assay [3]; 4.6 µM in assay [4]; 21.1 µM in assay [5]; over 50 µM in assay [6]. The IC50 in assay [7] was found to be 5 µM.

On to `CN1CCN(c2ccc(NC=C3C(=O)NC(=O)c4ccc(-c5ccc(C=CC(=O)O)cc5)cc43)cc2)CC1` [Example 698, 3-[4-(4-{[4-(4-Methyl-piperazin-1-yl)-phenylamino]-methylene}-1,3-dioxo-1,2,3,4-tetrahydro-isoquinolin-6-yl)-phenyl]-acrylic acid], for which the 50% inhibitory concentration (IC50) in assay [1] is 0.28 µM; in assay [2] it was 46.3 µM; in assay [3] it was 48.1 µM; in assay [4], over 50 µM; in assay [5], over 50 µM; in assay [6], over 50 µM. Also, the IC50 in assay [7] is over 50 µM.

Turning to `CN1CCN(c2ccc(NC=C3C(=O)NC(=O)c4ccc(C=Cc5ccc(S(N)(=O)=O)cc5)cc43)cc2)CC1` [Example 728, 4-[2-(4-{[4-(4-Methyl-piperazin-1-yl)-phenylamino]-methylene}-1,3-dioxo-1,2,3,4-tetrahydro-isoquinolin-6-yl)-vinyl]-benzenesulfonamide], the IC50 in assay [1] is 0.07 µM; in assay [2] it was 29.1 µM; in assay [3], over 50 µM; in assay [4], over 50 µM; in assay [5], 1 µM; in assay [6], 1.3 µM. For the same compound, the concentration for half-maximal inhibition (IC50) in assay [7] was over 50 µM.

`COc1ccc(CNC=C2C(=O)NC(=O)c3ccc(C=Cn4ccnc4)cc32)cc1O` [Example 734, 4-[(3-Hydroxy-4-methoxy-benzylamino)-methylene]-6-(2-imidazol-1-yl-vinyl)-4H-isoquinoline-1,3-dione]: the IC50 in assay [1] is under 0.005 µM; in assay [2], 11.9 µM; in assay [3] it was 9.9 µM; in assay [4] it was 2.5 µM; in assay [5] it was 20.2 µM; in assay [6] it was 5 µM. The half-inhibitory concentration (IC50) in assay [7] is 6.7 µM.
